Assay results published in the NIST ThermoML archive (doi:10.1021/je060271a).
“And” between values parts separate entries of the source, which are not always exact repeats. Equal values may be shown once. ± gives the expanded uncertainty stated by the source.

Conditions: 283.14 K, Liquid, Vibrating tube method

CCCCCCC(=O)OCC(COC(=O)CCCCCC)(COC(=O)CCCCCC)COC(=O)CCCCCC [pentaerythritol tetraheptanoate]
Conditions	mass density
4385.6 kPa	988.4 ± 1.2 kg/m3
4385.7 kPa	988.4 ± 1.2 kg/m3 and 988.5 ± 1.2 kg/m3
4385.8 kPa	988.4 ± 1.2 kg/m3
4385.9 kPa	988.3 ± 1.2 kg/m3 and 988.4 ± 1.2 kg/m3 and 988.5 ± 1.2 kg/m3
4386 kPa	988.4 ± 1.2 kg/m3 and 988.3 ± 1.2 kg/m3
4386.1 kPa	988.5 ± 1.2 kg/m3 and 988.4 ± 1.2 kg/m3 and 988.3 ± 1.2 kg/m3
4386.2 kPa	988.4 ± 1.2 kg/m3
4386.5 kPa	988.5 ± 1.2 kg/m3
4386.7 kPa	988.4 ± 1.2 kg/m3
4387 kPa	988.3 ± 1.2 kg/m3 and 988.4 ± 1.2 kg/m3
4387.4 kPa	988.4 ± 1.2 kg/m3
4388.1 kPa	988.3 ± 1.2 kg/m3
4388.6 kPa	988.5 ± 1.2 kg/m3
4392.2 kPa	988.4 ± 1.2 kg/m3
4392.3 kPa	988.5 ± 1.2 kg/m3
4393.3 kPa	988.3 ± 1.2 kg/m3
4394 kPa	988.5 ± 1.2 kg/m3
4394.1 kPa	988.5 ± 1.2 kg/m3
4394.5 kPa	988.4 ± 1.2 kg/m3
4394.7 kPa	988.4 ± 1.2 kg/m3
4395.2 kPa	988.5 ± 1.2 kg/m3 and 988.4 ± 1.2 kg/m3
4395.7 kPa	988.4 ± 1.2 kg/m3
4396 kPa	988.4 ± 1.2 kg/m3
4396.2 kPa	988.5 ± 1.2 kg/m3
4396.6 kPa	988.4 ± 1.2 kg/m3
4401.3 kPa	988.5 ± 1.2 kg/m3
4404.8 kPa	988.5 ± 1.2 kg/m3
4409.8 kPa	988.5 ± 1.2 kg/m3
4413.5 kPa	988.4 ± 1.2 kg/m3
4417.1 kPa	988.4 ± 1.2 kg/m3
4421.1 kPa	988.4 ± 1.2 kg/m3
4425.8 kPa	988.5 ± 1.2 kg/m3
4429.6 kPa	988.5 ± 1.2 kg/m3
4433.4 kPa	988.4 ± 1.2 kg/m3
4437.9 kPa	988.4 ± 1.2 kg/m3
4441.9 kPa	988.6 ± 1.2 kg/m3
4445.5 kPa	988.5 ± 1.2 kg/m3
4450.3 kPa	988.4 ± 1.2 kg/m3
4452.1 kPa	988.5 ± 1.2 kg/m3
4456.8 kPa	988.4 ± 1.2 kg/m3
4460.9 kPa	988.4 ± 1.2 kg/m3
4464.4 kPa	988.4 ± 1.2 kg/m3
4469.4 kPa	988.4 ± 1.2 kg/m3
4473.1 kPa	988.5 ± 1.2 kg/m3
4476.9 kPa	988.5 ± 1.2 kg/m3
4480.5 kPa	988.4 ± 1.2 kg/m3
4485.5 kPa	988.4 ± 1.2 kg/m3
4489.5 kPa	988.4 ± 1.2 kg/m3
4493.3 kPa	988.5 ± 1.2 kg/m3
4498.2 kPa	988.4 ± 1.2 kg/m3
4502.1 kPa	988.4 ± 1.2 kg/m3
4505.9 kPa	988.5 ± 1.2 kg/m3
4509.9 kPa	988.5 ± 1.2 kg/m3
4513.7 kPa	988.6 ± 1.2 kg/m3
4518.2 kPa	988.4 ± 1.2 kg/m3
4521.7 kPa	988.5 ± 1.2 kg/m3
4525.7 kPa	988.5 ± 1.2 kg/m3
4529.3 kPa	988.5 ± 1.2 kg/m3
4533.1 kPa	988.5 ± 1.2 kg/m3
4539.2 kPa	988.5 ± 1.2 kg/m3
4548.9 kPa	988.4 ± 1.2 kg/m3
4556.8 kPa	988.5 ± 1.2 kg/m3
4564.8 kPa	988.5 ± 1.2 kg/m3
4572.9 kPa	988.5 ± 1.2 kg/m3
4583.2 kPa	988.6 ± 1.2 kg/m3
4591.3 kPa	988.5 ± 1.2 kg/m3
4599.9 kPa	988.5 ± 1.2 kg/m3
4607.7 kPa	988.6 ± 1.2 kg/m3
4617.4 kPa	988.5 ± 1.2 kg/m3
4625.9 kPa	988.5 ± 1.2 kg/m3
4635.9 kPa	988.4 ± 1.2 kg/m3
4644.3 kPa	988.5 ± 1.2 kg/m3
4652.7 kPa	988.5 ± 1.2 kg/m3
4663.3 kPa	988.5 ± 1.2 kg/m3
4671.8 kPa	988.5 ± 1.2 kg/m3
4680.4 kPa	988.5 ± 1.2 kg/m3
4689.1 kPa	988.6 ± 1.2 kg/m3
4697.7 kPa	988.5 ± 1.2 kg/m3
4708.3 kPa	988.6 ± 1.2 kg/m3
4717 kPa	988.6 ± 1.2 kg/m3
4726.5 kPa	988.6 ± 1.2 kg/m3
4737 kPa	988.7 ± 1.2 kg/m3
4746.4 kPa	988.9 ± 1.2 kg/m3
4755 kPa	988.6 ± 1.2 kg/m3
4774.4 kPa	988.7 ± 1.2 kg/m3
4781.5 kPa	988.6 ± 1.2 kg/m3
4786.9 kPa	988.6 ± 1.2 kg/m3
4792.4 kPa	988.5 ± 1.2 kg/m3
4799.3 kPa	988.6 ± 1.2 kg/m3
4804.7 kPa	988.7 ± 1.2 kg/m3
4810.6 kPa	988.6 ± 1.2 kg/m3
4816.1 kPa	988.7 ± 1.2 kg/m3
4823 kPa	988.6 ± 1.2 kg/m3
4828.9 kPa	988.7 ± 1.2 kg/m3
4834.3 kPa	988.7 ± 1.2 kg/m3
4841.2 kPa	988.6 ± 1.2 kg/m3
4847.3 kPa	988.7 ± 1.2 kg/m3
4853.2 kPa	988.7 ± 1.2 kg/m3
4858.7 kPa	988.6 ± 1.2 kg/m3
4865.8 kPa	988.6 ± 1.2 kg/m3
4871.7 kPa	988.8 ± 1.2 kg/m3
4877.4 kPa	988.7 ± 1.2 kg/m3
4884.1 kPa	988.6 ± 1.2 kg/m3
4890 kPa	988.7 ± 1.2 kg/m3
4895.9 kPa	988.8 ± 1.2 kg/m3
4902.8 kPa	988.7 ± 1.2 kg/m3
4908.7 kPa	988.8 ± 1.2 kg/m3
4914.6 kPa	988.7 ± 1.2 kg/m3
4920.6 kPa	988.8 ± 1.2 kg/m3
4927.9 kPa	988.7 ± 1.2 kg/m3
4934 kPa	988.7 ± 1.2 kg/m3
4940 kPa	988.7 ± 1.2 kg/m3
4946.3 kPa	988.7 ± 1.2 kg/m3
4953 kPa	988.7 ± 1.2 kg/m3
4959.8 kPa	988.6 ± 1.2 kg/m3
4965.7 kPa	988.6 ± 1.2 kg/m3
4971.9 kPa	988.7 ± 1.2 kg/m3
4978 kPa	988.8 ± 1.2 kg/m3
4985.2 kPa	988.8 ± 1.2 kg/m3
4991.3 kPa	988.8 ± 1.2 kg/m3
4997.3 kPa	988.9 ± 1.2 kg/m3
5004.4 kPa	988.8 ± 1.2 kg/m3
5010.7 kPa	988.7 ± 1.2 kg/m3
5016.9 kPa	988.8 ± 1.2 kg/m3
5023.1 kPa	988.7 ± 1.2 kg/m3
5031.1 kPa	988.7 ± 1.2 kg/m3
5036.4 kPa	988.8 ± 1.2 kg/m3
5043.4 kPa	988.8 ± 1.2 kg/m3
5049.8 kPa	988.8 ± 1.2 kg/m3
5057 kPa	988.9 ± 1.2 kg/m3
5063.3 kPa	988.7 ± 1.2 kg/m3
5069.3 kPa	988.8 ± 1.2 kg/m3
5075.9 kPa	988.8 ± 1.2 kg/m3
5083.3 kPa	988.9 ± 1.2 kg/m3
5089.6 kPa	988.9 ± 1.2 kg/m3
5095.8 kPa	988.8 ± 1.2 kg/m3
5103.7 kPa	988.7 ± 1.2 kg/m3
5110 kPa	988.8 ± 1.2 kg/m3
5116.5 kPa	988.9 ± 1.2 kg/m3
5122.9 kPa	988.8 ± 1.2 kg/m3
5129 kPa	988.9 ± 1.2 kg/m3
5137 kPa	988.9 ± 1.2 kg/m3
5192 kPa	988.9 ± 1.2 kg/m3
5198.7 kPa	988.9 ± 1.2 kg/m3
5206.7 kPa	989 ± 1.2 kg/m3
5213.1 kPa	989 ± 1.2 kg/m3
5219.7 kPa	988.8 ± 1.2 kg/m3
5227.4 kPa	988.8 ± 1.2 kg/m3
5234.2 kPa	988.9 ± 1.2 kg/m3
5241.1 kPa	988.9 ± 1.2 kg/m3
5247.7 kPa	988.9 ± 1.2 kg/m3
5255.5 kPa	988.9 ± 1.2 kg/m3
5262.2 kPa	988.9 ± 1.2 kg/m3
5269 kPa	988.9 ± 1.2 kg/m3
5277.1 kPa	989 ± 1.2 kg/m3
5284.2 kPa	988.9 ± 1.2 kg/m3
5291.1 kPa	988.9 ± 1.2 kg/m3
5298.2 kPa	988.9 ± 1.2 kg/m3
5306.7 kPa	988.9 ± 1.2 kg/m3
5313.1 kPa	988.9 ± 1.2 kg/m3
5319.7 kPa	989 ± 1.2 kg/m3
5326.9 kPa	988.9 ± 1.2 kg/m3
5335.6 kPa	988.9 ± 1.2 kg/m3
5342.3 kPa	988.9 ± 1.2 kg/m3
5349.4 kPa	988.9 ± 1.2 kg/m3
5357.5 kPa	989 ± 1.2 kg/m3
5365 kPa	988.9 ± 1.2 kg/m3
5371.7 kPa	989 ± 1.2 kg/m3
5380.2 kPa	989 ± 1.2 kg/m3
5387.5 kPa	989 ± 1.2 kg/m3
5394.7 kPa	988.9 ± 1.2 kg/m3
5401.6 kPa	989.1 ± 1.2 kg/m3
5410.1 kPa	989 ± 1.2 kg/m3
5417.6 kPa	989 ± 1.2 kg/m3
5424.8 kPa	988.9 ± 1.2 kg/m3
5433.5 kPa	989 ± 1.2 kg/m3
5440.6 kPa	989.1 ± 1.2 kg/m3
5447.7 kPa	989.1 ± 1.2 kg/m3
5455.3 kPa	989 ± 1.2 kg/m3
5463.1 kPa	989.1 ± 1.2 kg/m3
5471.2 kPa	989.1 ± 1.2 kg/m3
5478.6 kPa	989 ± 1.2 kg/m3
5485.9 kPa	989.1 ± 1.2 kg/m3
5494.7 kPa	989.1 ± 1.2 kg/m3
5502.5 kPa	989.1 ± 1.2 kg/m3
5509.9 kPa	989 ± 1.2 kg/m3
5517.5 kPa	989.1 ± 1.2 kg/m3
5526.7 kPa	989.1 ± 1.2 kg/m3
5534 kPa	989.2 ± 1.2 kg/m3
5541.8 kPa	989.2 ± 1.2 kg/m3
5549 kPa	989.1 ± 1.2 kg/m3
5565.4 kPa	989.1 ± 1.2 kg/m3
5582.7 kPa	989.1 ± 1.2 kg/m3
5591.5 kPa	989.2 ± 1.2 kg/m3
5599.8 kPa	989.1 ± 1.2 kg/m3
5607.5 kPa	989.2 ± 1.2 kg/m3
5615.5 kPa	989.2 ± 1.2 kg/m3
5624.1 kPa	989.1 ± 1.2 kg/m3
5632.1 kPa	989.2 ± 1.2 kg/m3
5640 kPa	989.1 ± 1.2 kg/m3
5649.2 kPa	989.2 ± 1.2 kg/m3
5657 kPa	989.3 ± 1.2 kg/m3
5665.1 kPa	989.1 ± 1.2 kg/m3
5674.3 kPa	989.1 ± 1.2 kg/m3
5682.4 kPa	989.1 ± 1.2 kg/m3
5690.4 kPa	989.2 ± 1.2 kg/m3
5697.6 kPa	989.2 ± 1.2 kg/m3
5705.8 kPa	989.1 ± 1.2 kg/m3
5714.2 kPa	989.3 ± 1.2 kg/m3
5724.3 kPa	989.1 ± 1.2 kg/m3
5732.6 kPa	989.2 ± 1.2 kg/m3
5739.8 kPa	989.3 ± 1.2 kg/m3
5774.2 kPa	989.2 ± 1.2 kg/m3
5783.6 kPa	989.3 ± 1.2 kg/m3
5791.5 kPa	989.2 ± 1.2 kg/m3
5800 kPa	989.2 ± 1.2 kg/m3
5810.4 kPa	989.3 ± 1.2 kg/m3
5818.7 kPa	989.3 ± 1.2 kg/m3
5827 kPa	989.3 ± 1.2 kg/m3
5837 kPa	989.3 ± 1.2 kg/m3
5845 kPa	989.2 ± 1.2 kg/m3
5854.3 kPa	989.2 ± 1.2 kg/m3
5862.6 kPa	989.3 ± 1.2 kg/m3
5871.8 kPa	989.2 ± 1.2 kg/m3
